Results: patent US6492344B1, “Syndecan enhancer element and syndecan stimulation of cellular differentiation” (Biotie Therapies Corp., priority 1993, dated 2002)
Entries after “also recorded” stand apart in the source; their conditions may differ.

What was measured:
[1] = tested on: syndecan-1 expression in MCF-7 cells; experiment: Syndecan mRNA expression in MCF-7 cells under estrogen and toremifene; type: cell-based, human; conditions: MCF-7 cells exposed to estrogen, then anti-estrogen treatment
Procedure: (§1) The steroid-responsive human breast cancer cell line MCF-7 was used to study the expression of human syndecan under different growth conditions regulated by estrogen and anti-estrogen. Cells were plated at a density of 1.2×10^6 cells/100 mm of plastic culture dish and grown as monolayer cultures in 10 ml per dish of phenol red-free DMEM medium with 5% dextran/charcoal treated fetal calf serum (DS-FCS), 2 mM L-glutamine and 3 μg/ml insulin. […] The cells were cultured for 6 days, and the media were changed every second day. For RNA extraction, cells were washed in situ with PBS and scraped from the plates in 4 M guanidine isothiocyanate.

MCF-7 cells = experiment: Growth behavior of MCF-7 cells under estrogen and toremifene; type: cell-based, human; conditions: MCF-7 cells exposed to estrogen, then toremifene
Procedure: as §1

[2] = tested on: FGF-inducible Response Element (FiRE); experiment: pFiRE CAT reporter activation by growth factors in 3T3NIH cells; type: cell-based, mouse; conditions: pFiRE transfected 3T3NIH cells; 10 ng/ml growth factor (2 ng/ml TGF-β) or 5% FCS, 2 days
Procedure: Each of these plasmids was transiently transfected into 3T3NIH cells, using the calcium phosphate precipitation method (Chen and Okayama, Mol. Cell Biol. 7:2745-2752 (1987)) as follows. For transient transfections NIH3T3 cells were plated at equal density on six-well plates (Falcon) two days before transfection. Plasmid DNA was transfected into cells by calcium phosphate method (Chen and Okayama, Mol. Cell Biol. 7:2745-2752 (1987)). A β-galactosidase expressing plasmid (pSV-β-galactosidase, Promega) was co-transfected with CAT constructs to monitor transfection efficiencies. Three parallel transfections were used in every assay. Directly after transfection growth factors were added, media change the next day and cells were harvested after two days. CAT activities were measured by liquid scintillation and β-galactosidase activities spectrophotometrically at 420 nm as described by Vihinen et al., J. Biol. Chem 268:17261-17269 (1993)). As a control, other samples of the cells transfected with each plasmid were treated with buffer without FGF-2 for the same time periods.
For the gene expression analysis the fragments of the syndecan-1 upstream region were subcloned from mouse genomic clones into the XbaI site of the pCATProm vector in which a mouse syndecan-1 promoter region (−1310 to +140) was fused to the CAT reporter gene (Vihinen et al., J. Biol. Chem. 271:12532-12541 (1996)). The pX-HIIICAT plasmid was prepared by cloning HindIII-XhoI promoter fragment (−2400 to +140 bp) into the promoterless pCAT basic vector (Promega). For pXSp1 and 2 plasmids, SphI fragments −11.4 to −10.5 kb and −10.5 to −9.4 kb, respectively) were deleted from pXb6CAT (−11.6 to −9.4 kb). Constructs pXS2, pXB3 and pXX1 were generated by ligating SphI-EarI/blunt (−10.5 to −10.1 kb), EarI/blunt fragment (−10.1 to −9.8 kb) and EarI/blunt-XbaI (−9.8 to −9.4 kb) from pXSpI into SphI-AccI/blunt, AccI/blunt or XbaI-SphIlblunt sites, respectively, into the pCATProm vector. Blunt ended fragments were made by T4 polymerase (Promega). For FiRE and FiREREV a PstI-StyI/blunt fragment was subcloned into PstI-EcoRV or PstI-SmaI sites of the pBluescript vector and then transfected to Xba-SphI sites in pCATProm vector. These constructs were then used to transient transfect NIH3T3 cells as described supra, and CAT activity was measured.
Effect of Various Growth Factors on Enhancer Activation in NIH3T3 Cells. Plasmid pFiRE was transfected into 3T3NIH cells as described, supra. The cells were starved in DMEM medium supplemented with 5% fetal calf serum to about 70% confluence. Fetal calf serum was then replaced with 2% carboxy-methyl-Sephadex eluted fetal calf serum (CMS) 12 hrs before adding the growth factors. Various growth factors in the same medium, 5% fetal calf serum (FCS) supplemented medium or a control containing the medium, without any added growth factors were incubated with the transfected cells for 2 days, and CAT activity was measured. The effect of 10 ng/ml of FGF-2, FGF-1, FGF-4, FGF-7 (KGF), EGF, IGF1, TGFα, IFNγ, and PDGF and 2 ng/ml TGF-β were tested. The human recombinant growth factors were purchased from Peprotech (FGF-1, -2, and -7), Boehringer (FGF-2) or from Calbiochem (PDGF) TGF-β was purchased from Sigma. The effect of the added growth factors and FCS on DNA synthesis was also tested by a 125-IdU incorporation assay. […] Radioactivity was measured using a gamma counter (Wallac).

3T3NIH cells = experiment: 125-IdU incorporation (DNA synthesis) assay in 3T3NIH cells; type: cell-based, mouse; conditions: pFiRE transfected 3T3NIH cells; 10 ng/ml growth factor (2 ng/ml TGF-β) or 5% FCS
Description: Effect of Various Growth Factors on Enhancer Activation in NIH3T3 Cells. Plasmid pFiRE was transfected into 3T3NIH cells as described, supra. The cells were starved in DMEM medium supplemented with 5% fetal calf serum to about 70% confluence. Fetal calf serum was then replaced with 2% carboxy-methyl-Sephadex eluted fetal calf serum (CMS) 12 hrs before adding the growth factors. Various growth factors in the same medium, 5% fetal calf serum (FCS) supplemented medium or a control containing the medium, without any added growth factors were incubated with the transfected cells for 2 days, and CAT activity was measured. The effect of 10 ng/ml of FGF-2, FGF-1, FGF-4, FGF-7 (KGF), EGF, IGF1, TGFα, IFNγ, and PDGF and 2 ng/ml TGF-β were tested. The human recombinant growth factors were purchased from Peprotech (FGF-1, -2, and -7), Boehringer (FGF-2) or from Calbiochem (PDGF) TGF-β was purchased from Sigma. The effect of the added growth factors and FCS on DNA synthesis was also tested by a 125-IdU incorporation assay. This cell proliferation assay was carried out by incubating cells for 4-6 hrs with 0.25 μCi/ml 5-[^125I]iodo-2′-deoxyuridine (IdU, Amersham), washed several times with PBS and solubilized in 1 M NaOH. Radioactivity was measured using a gamma counter (Wallac).

[3] = tested on: FGF-inducible Response Element (FiRE); experiment: FiRE / Syn Prom CAT reporter in MCA3D keratinocytes; type: cell-based; conditions: MCA3D mouse keratinocytes transfected with FiRE construct
Procedure: The cells used for proximal promoter constructs were 3T3 NIH, S115 (either hormone-treated or not) and nMuMG cells. For enhancer constructs we used 3T3 NIH cells grown in 2% CMS medium and MCA 3D cells grown in Ham's medium. 3T3 NIH cells were also used to test the effect of growth factors in 2% CMS medium with 10 ng/ml FGF-2 and 2ng/ml TGFβ-1. MCA 3D cells were used to test the effect of 10 ng/ml KGF.
FiRE is Induced Selectively by FGF-7 in Keratinocytes. The ability of FiRE to enhance transcription was tested in the mouse keratinocyte cell line MCA3D (Kuliz-Martin et al., Carcinogenesis 4:1367-1377 (1983)). MCA3D cells were transfected as described supra for mouse NIH3T3 cells. Following transfection, the cells were treated with fetal calf serum, PDGF, FGF-1, FGF-2, and FGF-7 as described supra for the NIH3T3 cells.

[4] = tested on: FGF-inducible Response Element (FiRE); experiment: FiRE CAT assay with AP-1 activating agents in stable 3T3NIH cells; type: cell-based, mouse; conditions: minimal promoter, agents known to activate AP-1
Procedure: FIG. 24. […] Different agents known to induce fos-jun complexes and activate AP-1 driven promoters, were tested for FiRE activation in CAT assay with the minimal promoter transferred in stable 3T3NIH cells in the presence of protein kinase C activator (TPA, 10 mm), protein phosphatase 1 and 2 inhibitors (DA and calycalin A), a cAMP activator (forskolin), or a tyrosine phosphatase inhibitor (orthovanadate).
Agents Activating AP-1 Are Not Sufficient for FiRE Activation. Since FiRE contains AP-1 transcription factors, whose activation is well characterized, we tested chemicals known to cause AP-1 dependent gene activation. These included the protein kinase C (PKC) activator 12-O-tetradecanoylphorpol-13-acetate (TPA), protein-phosphate-1 and -2 inhibitors okadaic acid and calyculin A, cAMP activator forskolin and tyrosine kinase phosphatase inhibitor orthovanadate (FIG. 24a).

syndecan-1 gene = experiment: Syndecan-1 mRNA quantification in 3T3NIH cells exposed to FGF-2; type: cell-based, mouse; conditions: TGF-β alone
Description: Northern Blot—RNA was isolated from 3T3 and NMuMG cells using 4 M guanidine isothiocyanate and CsCl density centrifugation (Chirgwin et al., Biochemistry 18:5294-5299 (1979)). RNA samples were size-separated on a 1% agarose formaldehyde gel, transferred to a GeneScreen Plus™ membrane (New England Nuclear) and hybridized with a multi-prime (Amersham) labeled partial cDNA clone for mouse syndecan (PM-4) (Saunders et al., J. Cell Biol. 108:1547-1556 (1989)). After hybridization, the membrane was washed in 2×SSC and 1.0% SDS at 65° C. (high stringency conditions). For rehybridization with glyceraldehyde-3-phosphate-dehydrogenase (GAPDH; Fort et al., Nucleic Acid Res. 13:1431-1442 (1985)), the bound PM-4 probe was removed as recommended by the manufacturer of the filter (NEN).
Following incubation with FGF-2, syndecan MRNA was isolated and quantified. Control incubations without FGF-2 were also performed. Syndecan mRNA was isolated and quantified […] FGF-2 treatment following 6, 12, and 24 hr incubations. The quantification of syndecan mRNA production can be seen in FIG. 11a. GAPDH mRNA was used as a loading control. […] The enhancement appears to be maximal at about 6 hrs of FGF-2 incubation, and decreases thereafter. In the Figure, two individual exposures for each time point are presented.

Compound	FiRE enhancer activation (CAT reporter activity) [2]	DNA synthesis / cell proliferation (125-IdU incorporation) (3T3NIH cells)	FiRE activation (CAT assay) [4]	further results
CN(C)CCOc1ccc(/C(=C(/CCCl)c2ccccc2)c2ccccc2)cc1 [toremifene]				syndecan-1 expression [1]: reverse their lowered syndecan expression; also recorded: restored syndecan-1 expression to levels close to that found in cells not exposed to estrogen; growth behavior of cells (MCF-7 cells): aided the cells in maintaining their normal growth behavior
EGF: epidermal growth factor (NSDSECPLSHDGYCLHDGVCMYIEALDKYACNCVVGYIGERCQYRDLKWWELR; Epidermal growth factor; UniProt P01133 971-1023, looked up)	no significant enhancer activation; also recorded: no effect on enhancer activity	significant increase in DNA synthesis; also recorded: enhanced cell proliferation to a similar extent as FGF-2		
PDGF	no significant enhancer activation; also recorded: no effect on enhancer activity	significant increase in DNA synthesis; also recorded: enhanced cell proliferation to a similar extent as FGF-2		FiRE activation [3]: failed to activate FiRE; also recorded: did not activate FiRE
C=C1[C@@H](O)[C@@H]2O[C@]3(CC[C@H](/C=C/[C@@H](C)[C@@H]4CC(C)=C[C@@]5(O[C@H](C[C@@](C)(O)C(=O)O)CC[C@H]5O)O4)O3)CC[C@H]2O[C@@H]1[C@@H](O)C[C@H](C)[C@H]1O[C@@]2(CCCCO2)CC[C@H]1C [okadaic acid]			none of the other compounds known to induce immediate early genes fos and jun and AP-1 driven promoters, were able to activate FiRE	
FGF-1: human recombinant growth factor, FGF family member	did not activate or suppress; also recorded: lower effect	significant increase in DNA synthesis		FiRE activation [3]: failed to activate FiRE; also recorded: did not activate FiRE
COC[C@@H]([C@H](O)[C@H](O)C(=O)NCC[C@H](C)c1nc(/C=C/C[C@@H]2O[C@]3(C[C@@H](O)[C@@H]2C)O[C@H]([C@H](C[C@H](O)[C@H](C)[C@H](O)[C@H](C)/C=C(C)/C(C)=C/C=C/C(C)=C\C#N)OC)[C@H](OP(=O)(O)O)C3(C)C)co1)N(C)C [calyculin A]			none of the other compounds known to induce immediate early genes fos and jun and AP-1 driven promoters, were able to activate FiRE	
IGF: growth factor IGF1 tested at 10 ng/ml	no effect on enhancer activity	enhanced cell proliferation to a similar extent as FGF-2		
TGF-β: transforming growth factor beta; porcine TGFβ1	no significant enhancer activation	significant increase in DNA synthesis		activation of the syndecan-1 gene (syndecan-1 gene): cannot activate the syndecan-1 gene
[O]=[V]([O-])([O-])[O-] [orthovanadate]			resulted in activation of FiRE	
CCCCCCCCCCCCCC(=O)O[C@@H]1[C@@H](C)[C@@]2(O)[C@@H](C=C(CO)C[C@]3(O)C(=O)C(C)=C[C@@H]23)[C@H]2C(C)(C)[C@]12OC(C)=O [TPA, 12-O-tetradecanoylphorpol-13-acetate]			none of the other compounds known to induce immediate early genes fos and jun and AP-1 driven promoters, were able to activate FiRE; also recorded: do not activate	
